Laboratory results as given in ChEMBL document CHEMBL1149496, “Dissecting the determinants of cyclin-dependent kinase 2 and cyclin-dependent kinase 4 inhibitor selectivity” (J Med Chem, 2006).

Biological target: Cyclin-dependent kinase 4 (Homo sapiens, UniProt P11802)
Experiment: Inhibition of CDK4

Cyclin-dependent kinase 4, sequence (P11802 whole entry): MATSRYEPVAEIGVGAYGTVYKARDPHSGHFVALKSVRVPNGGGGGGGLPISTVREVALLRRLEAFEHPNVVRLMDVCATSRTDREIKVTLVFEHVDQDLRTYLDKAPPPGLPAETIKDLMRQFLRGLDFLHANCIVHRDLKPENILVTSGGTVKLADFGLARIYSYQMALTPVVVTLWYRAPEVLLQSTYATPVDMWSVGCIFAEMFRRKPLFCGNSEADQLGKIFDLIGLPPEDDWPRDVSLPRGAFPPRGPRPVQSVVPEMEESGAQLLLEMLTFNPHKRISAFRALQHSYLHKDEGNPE

IC50: 0.047 µM
Structure (SMILES): Cc1ccc(Cl)c(N(CC#N)c2cc(Nc3ccc(OC[C@@H](O)CN(C)C)cc3)ncn2)c1
